{
  "source": "patent US12247064B2",
  "about": "“Modified ligand-gated ion channels and methods of use” (Howard Hughes Medical Institute, priority 2017, dated 2025)",
  "key": {"α7GlyR W77F Q79G G175K": {"molecular_target": "T1, α7GlyR W77F Q79G G175K (Homo sapiens, UniProt P36544, G175K/Q79G/W77F)", "T1 construct": "expressed in transfected cells", "T1 sequence (P36544 with tags, fused parts or gaps W77F/Q79G/G175K)": "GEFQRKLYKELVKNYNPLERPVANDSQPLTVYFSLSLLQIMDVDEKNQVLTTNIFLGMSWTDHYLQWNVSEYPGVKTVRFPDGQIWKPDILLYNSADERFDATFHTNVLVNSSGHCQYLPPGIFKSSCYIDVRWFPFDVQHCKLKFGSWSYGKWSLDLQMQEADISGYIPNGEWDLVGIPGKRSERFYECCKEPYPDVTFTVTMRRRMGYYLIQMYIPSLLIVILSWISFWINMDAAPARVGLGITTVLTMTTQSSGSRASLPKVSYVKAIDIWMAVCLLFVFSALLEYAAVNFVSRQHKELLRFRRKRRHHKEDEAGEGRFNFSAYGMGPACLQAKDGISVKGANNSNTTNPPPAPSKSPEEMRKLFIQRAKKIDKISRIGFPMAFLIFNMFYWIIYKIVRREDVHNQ", "assay": "Agonist potency at chimeric channel", "format": "cell-based", "conditions": "Table 6"}, "α7GlyR Q79G G175K Y115F": {"molecular_target": "T2, α7GlyR Q79G G175K Y115F (Homo sapiens, UniProt P36544, G175K/Q79G/Y115F)", "T2 construct": "expressed in transfected cells", "T2 sequence (P36544 with tags, fused parts or gaps Q79G/Y115F/G175K)": "as the sequence (P36544 with tags, fused parts or gaps W77F/Q79G/G175K) above, with F55W, Y93F counted along it", "assay": "Agonist potency at chimeric channel", "format": "cell-based", "conditions": "Table 6"}, "α7-5HT3": {"molecular_target": "α7-5HT3 (Homo sapiens, UniProt P36544, M226I/T225I)", "sequence (P36544 with tags, fused parts or gaps T225I/M226I limits assumed)": "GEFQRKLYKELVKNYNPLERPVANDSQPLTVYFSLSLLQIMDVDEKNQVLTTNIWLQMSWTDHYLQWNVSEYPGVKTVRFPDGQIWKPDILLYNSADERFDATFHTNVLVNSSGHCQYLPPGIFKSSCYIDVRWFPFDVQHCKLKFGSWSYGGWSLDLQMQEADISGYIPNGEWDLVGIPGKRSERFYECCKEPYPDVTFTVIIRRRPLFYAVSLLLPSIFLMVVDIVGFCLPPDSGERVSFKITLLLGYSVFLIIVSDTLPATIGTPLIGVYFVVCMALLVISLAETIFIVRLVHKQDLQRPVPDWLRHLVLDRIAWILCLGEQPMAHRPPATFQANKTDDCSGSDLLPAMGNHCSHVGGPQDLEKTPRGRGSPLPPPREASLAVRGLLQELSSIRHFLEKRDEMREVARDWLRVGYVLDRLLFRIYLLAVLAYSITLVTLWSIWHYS"}, "[1]": {"test_system": "α7GlyR G175K / A298G mutant chimeric channels", "format": "cell-based, human", "conditions": "read-out: Agonist potency"}, "α7^R21D,E41R-5HT3": {"molecular_target": "T3, α7^R21D,E41R-5HT3 (Homo sapiens, UniProt P36544, E41R/M226I/R27D/T225I)", "T3 construct": "expressed in transfected cells; host or cells: HEK cells", "T3 sequence (P36544 with tags, fused parts or gaps R27D/E41R/T225I/M226I)": "as the sequence (P36544 with tags, fused parts or gaps T225I/M226I limits assumed) above, with R5D, E19R counted along it", "assay": "Whole cell recordings in HEK cells expressing charge reversal channel", "format": "cell-based", "conditions": "V5 epitope tag"}, "α7^Q79A-5HT3": {"molecular_target": "T4, α7^Q79A-5HT3 (Homo sapiens, UniProt P36544, M226I/Q79A/T225I)", "T4 construct": "expressed in transfected cells; host or cells: HEK cells", "T4 sequence (P36544 with tags, fused parts or gaps Q79A/T225I/M226I limits assumed)": "as the sequence (P36544 with tags, fused parts or gaps T225I/M226I limits assumed) above, with Q57A counted along it", "format": "cell-based, human α7 nAChR LBD, murine 5HT3 IPD", "conditions": "HEK cells; Table 1"}, "α7^Q79G-5HT3": {"molecular_target": "T5, α7^Q79G-5HT3 (Homo sapiens, UniProt P36544, M226I/Q79G/T225I)", "T5 construct": "expressed in transfected cells; host or cells: HEK cells", "T5 sequence (P36544 with tags, fused parts or gaps Q79G/T225I/M226I limits assumed)": "as the sequence (P36544 with tags, fused parts or gaps T225I/M226I limits assumed) above, with Q57G counted along it", "format": "cell-based, human α7 nAChR LBD, murine 5HT3 IPD", "conditions": "HEK cells; Table 1"}, "α7^Q79S-5HT3": {"molecular_target": "T6, α7^Q79S-5HT3 (Homo sapiens, UniProt P36544, M226I/Q79S/T225I)", "T6 construct": "expressed in transfected cells; host or cells: HEK cells", "T6 sequence (P36544 with tags, fused parts or gaps Q79S/T225I/M226I limits assumed)": "as the sequence (P36544 with tags, fused parts or gaps T225I/M226I limits assumed) above, with Q57S counted along it", "format": "cell-based, human α7 nAChR LBD, murine 5HT3 IPD", "conditions": "HEK cells; Table 1"}, "α7^Q79A-GlyR": {"molecular_target": "T7, α7^Q79A-GlyR (Homo sapiens, UniProt P36544, Q79A)", "T7 construct": "expressed in transfected cells; host or cells: HEK cells", "T7 sequence (P36544 with tags, fused parts or gaps Q79A)": "as the sequence (P36544 with tags, fused parts or gaps W77F/Q79G/G175K) above, with F55W, G57A, K153G counted along it", "format": "cell-based", "conditions": "HEK cells; Table 2; read-out: Mean EC50 and SEM in parentheses"}, "α7^Q79G-GlyR": {"molecular_target": "T8, α7^Q79G-GlyR (Homo sapiens, UniProt P36544, Q79G)", "T8 construct": "expressed in transfected cells; host or cells: HEK cells", "T8 sequence (P36544 with tags, fused parts or gaps Q79G)": "as the sequence (P36544 with tags, fused parts or gaps W77F/Q79G/G175K) above, with F55W, K153G counted along it", "format": "cell-based", "conditions": "HEK cells; Table 2; read-out: Mean EC50 and SEM in parentheses"}, "α7-GlyR^A298G": {"molecular_target": "T9, α7-GlyR^A298G (Homo sapiens, UniProt P36544, A298G)", "T9 construct": "expressed in transfected cells; host or cells: HEK cells", "T9 sequence (P36544 with tags, fused parts or gaps, stated change not applied)": "as the sequence (P36544 with tags, fused parts or gaps W77F/Q79G/G175K) above, with F55W, G57Q, K153G, A276G counted along it", "format": "cell-based", "conditions": "HEK cells; Table 2; read-out: Mean EC50 and SEM in parentheses"}, "α7-GlyR": {"molecular_target": "α7-GlyR (Homo sapiens, UniProt P36544)", "sequence (P36544 with tags, fused parts or gaps)": "as the sequence (P36544 with tags, fused parts or gaps W77F/Q79G/G175K) above, with F55W, G57Q, K153G counted along it"}, "5HT3-R": {"molecular_target": "T10, 5HT3-R (Homo sapiens, UniProt P46098)", "T10 sequence (P46098 24-478)": "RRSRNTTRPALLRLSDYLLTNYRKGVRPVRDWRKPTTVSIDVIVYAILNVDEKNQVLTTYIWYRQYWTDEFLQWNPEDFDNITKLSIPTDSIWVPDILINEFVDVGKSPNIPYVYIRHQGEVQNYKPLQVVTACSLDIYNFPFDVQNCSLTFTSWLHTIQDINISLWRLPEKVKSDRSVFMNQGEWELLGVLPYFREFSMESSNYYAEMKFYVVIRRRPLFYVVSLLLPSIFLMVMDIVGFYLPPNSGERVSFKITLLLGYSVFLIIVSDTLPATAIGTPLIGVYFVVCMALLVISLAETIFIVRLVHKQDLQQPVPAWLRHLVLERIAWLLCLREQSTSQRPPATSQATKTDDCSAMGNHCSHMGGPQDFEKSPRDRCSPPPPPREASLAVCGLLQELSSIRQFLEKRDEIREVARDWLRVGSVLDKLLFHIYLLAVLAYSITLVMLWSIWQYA", "assay": "Agonist potency at 5HT3-R", "format": "cell-based", "conditions": "read-out: EC50MP"}, "α4β2 nAChR [2]": {"molecular_target": "T11, α4β2 nAChR (Homo sapiens, UniProt P17787+P43681)", "T11 sequence (P43681 29-627 limits assumed)": "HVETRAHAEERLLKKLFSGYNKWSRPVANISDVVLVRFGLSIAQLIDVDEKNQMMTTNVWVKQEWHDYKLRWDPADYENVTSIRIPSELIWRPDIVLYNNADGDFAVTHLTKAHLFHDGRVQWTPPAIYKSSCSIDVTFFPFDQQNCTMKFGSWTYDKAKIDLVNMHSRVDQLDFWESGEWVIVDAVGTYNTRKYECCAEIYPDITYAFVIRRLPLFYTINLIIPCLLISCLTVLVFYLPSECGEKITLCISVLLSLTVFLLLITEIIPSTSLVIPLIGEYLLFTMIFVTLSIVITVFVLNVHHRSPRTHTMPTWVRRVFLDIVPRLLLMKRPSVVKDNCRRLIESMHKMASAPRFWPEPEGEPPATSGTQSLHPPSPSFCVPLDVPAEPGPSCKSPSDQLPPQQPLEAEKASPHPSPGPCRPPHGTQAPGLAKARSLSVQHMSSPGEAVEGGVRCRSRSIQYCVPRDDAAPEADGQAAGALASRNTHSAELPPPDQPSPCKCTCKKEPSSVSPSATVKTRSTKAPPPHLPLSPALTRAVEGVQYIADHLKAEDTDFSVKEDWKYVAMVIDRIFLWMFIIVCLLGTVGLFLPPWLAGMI", "T11 sequence (P17787 26-502)": "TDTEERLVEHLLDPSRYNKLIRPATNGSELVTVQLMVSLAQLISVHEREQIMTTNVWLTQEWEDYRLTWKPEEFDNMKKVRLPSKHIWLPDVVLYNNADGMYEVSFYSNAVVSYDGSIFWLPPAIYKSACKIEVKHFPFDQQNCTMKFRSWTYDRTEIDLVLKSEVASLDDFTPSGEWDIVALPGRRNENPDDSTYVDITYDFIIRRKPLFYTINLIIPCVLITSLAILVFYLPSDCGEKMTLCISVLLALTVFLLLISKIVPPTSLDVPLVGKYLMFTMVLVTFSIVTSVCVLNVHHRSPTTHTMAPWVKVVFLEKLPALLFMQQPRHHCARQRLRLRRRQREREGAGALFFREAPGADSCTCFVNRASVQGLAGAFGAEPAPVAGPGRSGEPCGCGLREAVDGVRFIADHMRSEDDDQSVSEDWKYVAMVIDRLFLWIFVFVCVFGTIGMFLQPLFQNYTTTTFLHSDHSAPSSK", "format": "cell-based", "from_the_text": "FIGS. 14A-14J show ultrapotent chemogenetic agonists (uPSEMs). […] LED: lowest effective dose for mice in SNr rotation assay. Units: nM; parentheses: SEM. Selectivity relative to PSAM^4-GlyR in bold. […] (FIG. 14E) Response amplitude normalized to ACh."}, "[3]": {"test_system": "mice expressing PSAM^4-GlyR unilaterally in SNr", "assay": "Unilateral SNr silencing rotation assay", "format": "in vivo, mouse", "conditions": "SNr silencing rotation assay in mice"}, "α4β2 nAChR [4]": {"molecular_target": "T11, α4β2 nAChR", "assay": "Agonist potency at α4β2 nAChR"}},
  "note": "Where two headings read alike, the source gives them in different places.",
  "data": [
    {"smiles": "c1ccc2c(c1)Sc1ccccc1N2CC1CN2CCC1CC2", "note": "(stereo not shown) [Mequitazine, reference compound]", "values": [
      {"measurement": "EC50", "setting": "α7GlyR W77F Q79G G175K", "result": 150, "unit": "nM"},
      {"measurement": "EC50", "setting": "α7GlyR Q79G G175K Y115F", "result": "> 10000", "unit": "nM"},
      {"measurement": "EC50", "setting": "α7-5HT3; read-out: Potency, Table 6", "result": "> 30000", "unit": "nM"}
    ]},
    {"smiles": "O=C(NC1CN2CCC1CC2)c1ccc(Cl)cc1", "note": "(stereo not shown) [PNU-282987]", "values": [
      {"measurement": "EC50", "setting": "[1]; α7GlyR Q79G A298G G175K Y115F", "result": 9, "unit": "nM"},
      {"measurement": "EC50", "setting": "[1]; α7GlyR Q79G A298G P216I", "result": 250, "unit": "nM"},
      {"measurement": "EC50", "setting": "[1]; α7GlyR Q79G A298G Y115F K395 K396A", "result": 110, "unit": "nM"},
      {"measurement": "EC50", "setting": "[1]; α7GlyR Q79G G175K A298G", "result": 0.36, "unit": "nM"},
      {"measurement": "EC50", "setting": "[1]; α7GlyR Q79G W77F A298G", "result": 1630, "unit": "nM"},
      {"measurement": "EC50", "setting": "[1]; α7GlyR R27D E41R Q79G Y115F", "result": 340, "unit": "nM"},
      {"measurement": "whole cell responses", "setting": "α7^R21D,E41R-5HT3", "result": "potent responses"}
    ]},
    {"smiles": "Cn1cc(C(=O)C(=O)NC2CN3CCC2CC3)c2ccccc21", "note": "(stereo not shown) [RS56812]", "values": [
      {"measurement": "EC50", "setting": "α7^Q79A-5HT3", "result": 6800, "unit": "nM"},
      {"measurement": "EC50", "setting": "α7^Q79G-5HT3", "result": 1400, "unit": "nM"},
      {"measurement": "EC50", "setting": "α7^Q79S-5HT3", "result": 5700, "unit": "nM"},
      {"measurement": "EC50", "setting": "α7^Q79A-GlyR", "result": 3500, "unit": "nM"},
      {"measurement": "EC50", "setting": "α7^Q79G-GlyR", "result": 2000, "unit": "nM"},
      {"measurement": "EC50", "setting": "α7-GlyR^A298G", "result": 2300, "unit": "nM"},
      {"measurement": "EC50", "setting": "α7-GlyR", "result": 6500, "unit": "nM"},
      {"measurement": "EC50", "setting": "α7-5HT3; read-out: Mean EC50, HEK cells, Table 1", "result": 10000, "unit": "nM"}
    ]},
    {"smiles": "CCCOc1cnc2cc3c(cc2n1)C1CNCC3C1", "note": "(stereo not shown) [compound 817]", "values": [
      {"measurement": "EC50", "setting": "5HT3-R", "result": "1500 ± 1000", "unit": "nM"},
      {"measurement": "effect on α4β2 nAChR", "setting": "α4β2 nAChR [2]", "result": "inhibits"},
      {"measurement": "In vivo potency", "setting": "[3]", "result": 0.1, "unit": "mpk"},
      {"measurement": "EC50", "setting": "α7-GlyR", "result": "> 100000", "unit": "nM"},
      {"measurement": "α4β2 nAChR agonism", "setting": "α4β2 nAChR [4]", "result": "do not show evident α4β2 nAChR agonism"},
      {"measurement": "EC50", "setting": "α4β2 nAChR [4]; read-out: EC50MP", "result": "> 30000", "unit": "nM"},
      {"measurement": "EC50", "setting": "α7-5HT3; read-out: EC50MP", "result": "> 100000", "unit": "nM"}
    ]}
  ]
}
